In patent US20230398130A1, “METHODS AND COMPOSITIONS FOR DIFFERENTIATING STEM CELLS” (Massachusetts Institute of Technology, priority 2020, published 2023):

Key:
ISC-enriched organoids [1] = assay: Primary screen, 384-well 2.5-D organoid differentiation (ENR+CD, 6 days): carbachol-induced lysozyme secretion (LYZ.S); assay type: cell-based, murine; conditions: primary screen; for Z.LYZ.S: standard z score; for SSMD.LYZ.S: strictly standardized mean difference; for Dose.FC.LYZ.S: FC vs plate median; for Dose.FC.LYZ.S (log 2 fold change): vs plate median
Excerpt: (§1) High-throughput screening.

ISC-enriched organoids [2] = assay: Primary screen, 384-well 2.5-D organoid differentiation (ENR+CD, 6 days, Target Selective Inhibitor Library, vs whole-plate median): ATP (CellTiter-Glo 3D, CTG); conditions: primary screen; for SSMD.CTG: strictly standardized mean difference; for Dose.FC.CTG: FC vs plate median; for Dose.FC.CTG (log 2 fold change): vs plate median
ISC-enriched organoids [3] = assay: Primary screen, 384-well 2.5-D organoid differentiation (ENR+CD, 6 days): basal lysozyme secretion (LYZ.NS); assay type: cell-based, murine; conditions: primary screen; for SSMD.LYZ.NS: strictly standardized mean difference; for Dose.FC.LYZ.NS: FC vs plate median; for Dose.FC.LYZ.NS (log 2 fold change): vs plate median
Excerpt: as §1

[4] = 1st of the 4 dose lines of the treatment (dose not given)
[5] = 2nd of the 4 dose lines of the treatment (dose not given)
[6] = 3rd of the 4 dose lines of the treatment (dose not given)
[7] = 4th of the 4 dose lines of the treatment (dose not given)
[8] = Dose 10.00 uM, standard z score
[9] = dose 0.08 uM, standard z score of FC
[10] = dose 0.40 uM, standard z score of FC
[11] = dose 2.00 uM, standard z score of FC
[12] = dose 10.00 uM, standard z score of FC

Compound CC[C@H](C)C(=O)O[C@H]1C[C@@H](C)C=C2C=C[C@H](C)[C@H](CC[C@@H]3C[C@@H](O)CC(=O)O3)[C@H]21 [Lovastatin] has a Z.LYZ.S (ISC-enriched organoids [1]; [4]) of −0.147, a Z.LYZ.S (ISC-enriched organoids [1]; [5]) of −0.320 and a Z.LYZ.S (ISC-enriched organoids [1]; [6]) of −2.572. The Z.LYZ.S (ISC-enriched organoids [1]; [7]) was −2.645, the SSMD.LYZ.S (ISC-enriched organoids [1]; [4]) was −0.128 and the SSMD.LYZ.S (ISC-enriched organoids [1]; [5]) was −0.236. The SSMD.LYZ.S (ISC-enriched organoids [1]; [6]) was −1.424, the SSMD.LYZ.S (ISC-enriched organoids [1]; [7]) was −1.288 and the Z.CTG (ISC-enriched organoids [2]; Dose 0.08 uM, standard z score) was −0.769. It also gave a Z.CTG (ISC-enriched organoids [2]; Dose 0.40 uM, standard z score) of −1.174, a Z.CTG (ISC-enriched organoids [2]; Dose 2.00 uM, standard z score) of −2.803 and a Z.CTG (ISC-enriched organoids [2]; [8]) of −3.322. It also gave an SSMD.CTG (ISC-enriched organoids [2]; [4]) of −0.609, an SSMD.CTG (ISC-enriched organoids [2]; [5]) of −1.511 and an SSMD.CTG (ISC-enriched organoids [2]; [6]) of −2.978. The SSMD.CTG (ISC-enriched organoids [2]; [7]) was −1.911, the SSMD.LYZ.NS (ISC-enriched organoids [3]; [4]) was 0.014 and the SSMD.LYZ.NS (ISC-enriched organoids [3]; [5]) was −0.516. The SSMD.LYZ.NS (ISC-enriched organoids [3]; [6]) was −1.430 and the SSMD.LYZ.NS (ISC-enriched organoids [3]; [7]) was −1.590.

Cc1cccc(-c2nn3c(c2-c2ccnc4ccc(C(N)=O)cc24)CCC3)n1 [LY2157299] showed a Dose.FC.LYZ.S (ISC-enriched organoids [1]; Dose 0.08 uM) of 0.187 log 2 fold change, a Dose.FC.LYZ.S (ISC-enriched organoids [1]; Dose 0.40 uM) of 0.199 log 2 fold change and a Dose.FC.LYZ.S (ISC-enriched organoids [1]; Dose 2.00 uM) of 0.113 log 2 fold change. For the same compound, the Dose.FC.LYZ.S (ISC-enriched organoids [1]; Dose 10.00 uM) was 0.223 log 2 fold change, the Z.LYZ.S (ISC-enriched organoids [1]; [4]) was 1.209 and the Z.LYZ.S (ISC-enriched organoids [1]; [5]) was 1.287. It also gave a Z.LYZ.S (ISC-enriched organoids [1]; [6]) of 0.731, a Z.LYZ.S (ISC-enriched organoids [1]; [7]) of 1.441 and an SSMD.LYZ.S (ISC-enriched organoids [1]; [4]) of 1.145. It also gave an SSMD.LYZ.S (ISC-enriched organoids [1]; [5]) of 1.157, an SSMD.LYZ.S (ISC-enriched organoids [1]; [6]) of 0.808 and an SSMD.LYZ.S (ISC-enriched organoids [1]; [7]) of 1.219. For the same compound, the Dose.FC.CTG (ISC-enriched organoids [2]; Dose 0.08 uM) was 0.091 log 2 fold change, the Z.CTG (ISC-enriched organoids [2]; Dose 0.08 uM, standard z score) was 0.218 and the Dose.FC.CTG (ISC-enriched organoids [2]; Dose 0.40 uM) was 0.137 log 2 fold change. The Z.CTG (ISC-enriched organoids [2]; Dose 0.40 uM, standard z score) was 0.328, the Dose.FC.CTG (ISC-enriched organoids [2]; Dose 2.00 uM) was 0.017 log 2 fold change and the Z.CTG (ISC-enriched organoids [2]; Dose 2.00 uM, standard z score) was 0.041. It also gave a Dose.FC.CTG (ISC-enriched organoids [2]; Dose 10.00 uM) of 0.095 log 2 fold change, a Z.CTG (ISC-enriched organoids [2]; [8]) of 0.226 and an SSMD.CTG (ISC-enriched organoids [2]; [4]) of 0.343. For the same compound, the SSMD.CTG (ISC-enriched organoids [2]; [5]) was 0.369, the SSMD.CTG (ISC-enriched organoids [2]; [6]) was 0.048 and the SSMD.CTG (ISC-enriched organoids [2]; [7]) was 0.314. The Dose.FC.LYZ.NS (ISC-enriched organoids [3]; Dose 0.08 uM) was 0.227 log 2 fold change, the Z.LYZ.NS (ISC-enriched organoids [3]; Dose 0.08 uM, standard z score) was 1.973 and the Dose.FC.LYZ.NS (ISC-enriched organoids [3]; Dose 0.40 uM) was 0.140 log 2 fold change. It also gave a Z.LYZ.NS (ISC-enriched organoids [3]; Dose 0.40 uM, standard z score) of 1.221, a Dose.FC.LYZ.NS (ISC-enriched organoids [3]; Dose 2.00 uM) of 0.092 log 2 fold change and a Z.LYZ.NS (ISC-enriched organoids [3]; Dose 2.00 uM, standard z score) of 0.799. The Dose.FC.LYZ.NS (ISC-enriched organoids [3]; Dose 10.00 uM) was 0.162 log 2 fold change, the Z.LYZ.NS (ISC-enriched organoids [3]; [8]) was 1.408 and the SSMD.LYZ.NS (ISC-enriched organoids [3]; [4]) was 0.656. For the same compound, the SSMD.LYZ.NS (ISC-enriched organoids [3]; [5]) was 0.737, the SSMD.LYZ.NS (ISC-enriched organoids [3]; [6]) was 0.827 and the SSMD.LYZ.NS (ISC-enriched organoids [3]; [7]) was 1.243.

With O=C1NC(=O)/C(=C/c2cccc(C(F)(F)F)c2)S1 [SMI-4a] the “Dose.FC.LYZ.S (log 2 fold change)” value (ISC-enriched organoids [1]; Dose 0.08 uM) was 0.036, the “Dose.FC.LYZ.S (log 2 fold change)” value (ISC-enriched organoids [1]; Dose 0.40 uM) was −0.063 and the “Dose.FC.LYZ.S (log 2 fold change)” value (ISC-enriched organoids [1]; Dose 2.00 uM) was −0.042. The “Dose.FC.LYZ.S (log 2 fold change)” value (ISC-enriched organoids [1]; Dose 10.00 uM) was −0.134, the “Z.CTG (standard z score)” value (ISC-enriched organoids [2]; Dose 0.08 uM) was −0.366 and the “Dose.FC.CTG (log 2 fold change)” value (ISC-enriched organoids [2]; Dose 0.08 uM) was −0.153. For the same compound, the “Z.CTG (standard z score)” value (ISC-enriched organoids [2]; Dose 0.40 uM) was −0.758, the “Dose.FC.CTG (log 2 fold change)” value (ISC-enriched organoids [2]; Dose 0.40 uM) was −0.317 and the “Z.CTG (standard z score)” value (ISC-enriched organoids [2]; Dose 2.00 uM) was −0.793. For the same compound, the “Dose.FC.CTG (log 2 fold change)” value (ISC-enriched organoids [2]; Dose 2.00 uM) was −0.332, the “Z.CTG (standard z score)” value (ISC-enriched organoids [2]; Dose 10.00 uM) was −0.781 and the “Dose.FC.CTG (log 2 fold change)” value (ISC-enriched organoids [2]; Dose 10.00 uM) was −0.327. The “Z.LYZ.NS (standard z score)” value (ISC-enriched organoids [3]; Dose 0.08 uM) was 0.188, the “Dose.FC.LYZ.NS (log 2 fold change)” value (ISC-enriched organoids [3]; Dose 0.08 uM) was 0.022 and the “Z.LYZ.NS (standard z score)” value (ISC-enriched organoids [3]; Dose 0.40 uM) was −0.524. The “Dose.FC.LYZ.NS (log 2 fold change)” value (ISC-enriched organoids [3]; Dose 0.40 uM) was −0.060, the “Z.LYZ.NS (standard z score)” value (ISC-enriched organoids [3]; Dose 2.00 uM) was 0.283 and the “Dose.FC.LYZ.NS (log 2 fold change)” value (ISC-enriched organoids [3]; Dose 2.00 uM) was 0.032. The “Z.LYZ.NS (standard z score)” value (ISC-enriched organoids [3]; Dose 10.00 uM) was −0.643 and the “Dose.FC.LYZ.NS (log 2 fold change)” value (ISC-enriched organoids [3]; Dose 10.00 uM) was −0.074.

O=C(/C=C/c1cccc(S(=O)(=O)Nc2ccccc2)c1)NO [Belinostat (PXD101)] was tested, and the Dose.FC.LYZ.S (ISC-enriched organoids [1]; dose 0.08 uM, ENR+CD 6 days) was −0.059 log 2 fold change, the Dose.FC.LYZ.S (ISC-enriched organoids [1]; dose 0.40 uM, ENR+CD 6 days) was 0.042 log 2 fold change and the Dose.FC.LYZ.S (ISC-enriched organoids [1]; dose 2.00 uM, ENR+CD 6 days) was −0.264 log 2 fold change. It also gave a Dose.FC.LYZ.S (ISC-enriched organoids [1]; dose 10.00 uM, ENR+CD 6 days) of −0.327 log 2 fold change, a Dose.FC.CTG (ISC-enriched organoids [2]; dose 0.08 uM, ENR+CD 6 days) of −0.227 log 2 fold change and a Z.CTG (ISC-enriched organoids [2]; [9]) of −0.543. The Dose.FC.CTG (ISC-enriched organoids [2]; dose 0.40 uM, ENR+CD 6 days) was −0.055 log 2 fold change, the Z.CTG (ISC-enriched organoids [2]; [10]) was −0.133 and the Dose.FC.CTG (ISC-enriched organoids [2]; dose 2.00 uM, ENR+CD 6 days) was −0.782 log 2 fold change. The Z.CTG (ISC-enriched organoids [2]; [11]) was −1.868, the Dose.FC.CTG (ISC-enriched organoids [2]; dose 10.00 uM, ENR+CD 6 days) was −1.122 log 2 fold change and the Z.CTG (ISC-enriched organoids [2]; [12]) was −2.679. For the same compound, the Dose.FC.LYZ.NS (ISC-enriched organoids [3]; dose 0.08 uM, ENR+CD 6 days) was 0.008 log 2 fold change, the Z.LYZ.NS (ISC-enriched organoids [3]; [9]) was 0.067 and the Dose.FC.LYZ.NS (ISC-enriched organoids [3]; dose 0.40 uM, ENR+CD 6 days) was 0.129 log 2 fold change. For the same compound, the Z.LYZ.NS (ISC-enriched organoids [3]; [10]) was 1.125, the Dose.FC.LYZ.NS (ISC-enriched organoids [3]; dose 2.00 uM, ENR+CD 6 days) was −0.173 log 2 fold change and the Z.LYZ.NS (ISC-enriched organoids [3]; [11]) was −1.510. For the same compound, the Dose.FC.LYZ.NS (ISC-enriched organoids [3]; dose 10.00 uM, ENR+CD 6 days) was −0.196 log 2 fold change and the Z.LYZ.NS (ISC-enriched organoids [3]; [12]) was −1.709.
